Assay results as given in patent US20080293640A1, “Polypeptide inhibitors of HSP27 kinase and uses therefor” (Arizona Board of Regents, A body Corporate, of the State of …, priority 2007, published 2008).

Tests used:
[1] = test system: human saphenous vein (HSV); test: Sodium nitroprusside induced relaxation of human saphenous vein segments in a muscle bath; details: pretreated 2 hrs with 25 μM SB203580 or 30 μM BIP; contracted with NE 0.5 μM; SNP 0-1 μM; n=3; FIG. 5
Method: Segments of human saphenous vein (HSV) were equilibrated in a muscle bath and pretreated with buffer (control), 25 μM SB203580 (SB) or 30 μM BIP for 2 hrs and then contracted with norepinephrine (NE, 0.5 μM) and relaxed with increasing doses of sodium nitroprusside (SNP, 0-1 μM).

[2] = test system: Human saphenous vein rings; test: Intimal thickening in human saphenous vein rings, 14 day organ culture; details: BIP 5 or 10 μM, SB 20 μM; 14 days; FIG. 6
Method: Human saphenous vein rings were cultured in RPMI medium supplemented with L-glutamine (1%), penicillin/streptomycin (1%) and FBS (30%) at 5% CO2 and 37° C. for 14 days. The rings were either untreated (C) or treated with BIP (5 or 10 μM), SB (20 μM) or recombinant HSP27 protein (r-HSP27). * p<0.05 compared to the control (untreated) rings. After 14 days, the rings were fixed in formalin, embedded in paraffin, sectioned at 10 micrometer and stained using Weigert's Resorcin Fuchsin. The slides were analyzed by Zeiss microscope with 40× objective. The intimal thickness was measured using Zeiss and Adobe Photoshop software.

[3] = test system: Human saphenous vein rings; test: CTGF expression and phosphorylation of HSP27 in saphenous vein organ culture model (western blot); details: BIP 5 or 10 μM, SB 20 μM; 14 days; related to actin, untreated set to 1; FIG. 7
Method: The human saphenous vein rings were cultured in RPMI medium supplemented with L-glutamine (1%), penicillin/streptomycin (1%) and FBS (30%) at 5% CO2 and 37° C. for 14 days. The rings were either untreated (Control, C) or treated with BIP (5 or 10 μM) or SB (20 μM). Rings were frozen after 14 days and protein was extracted and separated by SDS-PAGE and analyzed by western blot using the antibodies as indicated. The data is shown in FIG. 7; Panel A is a representative blot, and Panels B and C show the data summary. The bands were quantified by densitometry, and CTGF, phosphorylated HSP27 or non-phosphorylated HSP27 expressions were related to actin expression to correct for loading differences. The expression of CTGF and HSP27 and phospho-HSP27 in untreated rings was set to 1 for comparison of different blots. Data expressed as mean ±standard deviation of 6 experiments (panel right). *: p<0.05 compared to the untreated rings (C).

[4] = test system: Rat aortic smooth muscle, A7R5 cells; test: ARS or LPA induced phosphorylation of HSP27 in A7R5 cells (western blot); assay type: cell-based; details: BIP 1, 5 or 10 μM or SB 20 μM for 2 h prior to ARS 500 μM or LPA 25 μM for 0.5 h; FIG. 8
Method: The cells were serum starved with DMEM medium supplemented with 1% BSA and 1% penicillin/streptomycin for 24 h. The phosphorylation of HSP27 was induced using arsenite (ARS, 500 μM) or lysophosphatidic acid (LPA, 25 μM) for 0.5 h. Cells were either untreated or pre-treated with BIP (1, 5 or 10 μM) or SB (20 μM) for 2 h prior to the stimulation with ARS or LPA. Cells were frozen after treatment and analyzed by SDS-PAGE and western blot. The data are shown in FIG. 8; Panels A and B are representative western blots, while Panels C and D provide the data. The bands were quantified by densitometry, and phosphorylated HSP27 or non-phosphorylated HSP27 expressions were related to actin expression to correct for loading differences. The ratio of phosphorylated HSP27/HSP27 (relative p-HSP27/HSP27) in untreated cells was set to 1 for comparison of different blots. Data expressed as mean ±standard deviation of 4 experiments. *: p<0.05 compared to the untreated cells (C).

[5] = test system: rat aortic smooth muscle (A7R5) cells; test: LPA induced CTGF expression in A7R5 cells (western blot); assay type: cell-based; details: BIP 10 or 20 μM or SB 20 μM for 2 h prior to LPA 25 μM, 24 h; FIG. 9
Method: The cells were serum starved with DMEM medium supplemented with 1% BSA and 1% penicillin/streptomycin for 24 h. Cells were either untreated (C) or pre-treated with BIP (10 or 20 μM) or SB (20 μM) for 2 h prior the stimulation with lysophosphatidic acid (LPA, 25 μM). After 24 h the cells were lysed, protein extracted and separated by SDS-PAGE and analyzed by western blotting. The data are shown in FIG. 9; Panel A is a representative western blot, while Panel B provides the data. The bands were quantified by densitometry, and CTGF expression was related to actin expression to correct for loading differences. CTGF expression in untreated cells (C) was set to 1 for comparison of different blots. Data expressed as mean ±standard deviation of 3 experiments. *: p<0.05 compared to the cells stimulated with LPA.

[6] = molecular target: MAPKAPKII (Homo sapiens, UniProt P49137); test: In vitro phosphorylation of recombinant HSP27 with […] (immunoblot); assay type: biochemical; details: MAPKAPKII 50 ng, 30 min at 30° C.; ratio P-P27 to P27, percent phosphorylation vs no inhibitor; FIG. 1
Method: Recombinant HSP27 ([…]) was phosphorylated with no enzyme (control, lane 1), […] (50 ng) in the absence (lane 2) or presence of 200 μM ([…]) (SEQ ID NO: 44) obtained from Calbiochem, (lane 3), or BIP (HSP27 kinase inhibitor peptide, […] (SEQ ID NO: 45) (lane 4) or HSP20 phosphopeptide (PTD-P20, lane 4) for 30 min at 30° C. The reaction mixtures were inactivated and separated by SDS-PAGE and transferred to PVDF membrane. The blot was probed with antibodies against HSP27 and phospho-HSP27. The ratio of P-P27 to P27 was calculated and the percent phosphorylation was determined with respect to the phosphorylation obtained in the absence of inhibitor (lane 2). This blot is a representative of 2 separate experiments.

[7] = test system: human keloid fibroblasts; test: TGF-β1 induced expression of CTGF and collagen in human keloid fibroblasts (immunoblot); assay type: cell-based
Description: (§1) One important downstream signaling event in the TGFB signaling pathway is the activation of HSP27 kinase. We have designed a cell permeable inhibitor of this kinase (BIP) that effectively blocks its activity. In this study, we employ stable isotopic labeling by amino acids in cell culture (SILAC) as a means to quantitate the protein expression differences manifest during 1) TGF-β1 stimulation, 2) TGF-β1 stimulation in the presence of BIP, or 3) no treatment at all (control) in a keloid fibroblast cell line. Human keloid fibroblasts were grown to 80% confluence, and then serum-starved for 48 h. The cells were subsequently stimulated with nothing (control), with 1.25 ng/ml of transforming growth factor beta 1 (TGFβ) for 24 h, or 10 μM of a BIP for 2 h followed by TGFβ1 for 24 h (TGFβ+BIP). The expression of CTGF and collagen was assessed by immunoblot and normalized to b-actin expression. Phospho-HSP27 was expressed as a ratio to endogenous HSP27. Quantitative results represent average ±standard deviation from 3 independent experiments.
Human keloid fibroblasts were maintained in Dulbecco's modified Eagle's medium (DMEM) supplemented with fetal calf serum (10%) and streptomycin/penicillin (1%). They were grown to 80% confluence, and then serum-starved for 48 h. […] The expression of CTGF and collagen was assessed by immunoblot and normalized to GAPDH (loading control) expression. Results in the graphs (FIG. 3) represent average ±standard deviation from 3 independent experiments.
In a further example, BIP was used at lower concentrations (5 or 10 μM).

[8] = test system: human keloid fibroblasts; test: TGF-β1 induced stress fiber formation in human keloid fibroblasts (phalloidin microscopy); assay type: cell-based; details: 60 μM BIP for 2 h followed by TGF-β1 1.25 ng/ml for 24 h
Method: Human keloid fibroblasts were maintained in Dulbecco's modified Eagle's medium (DMEM) supplemented with fetal calf serum (10%) and streptomycin/penicillin (1%). They were grown on cover slips and then serum-starved for 48 h. […] Cells were washed, processed for microscopy and labelled with Alexa 586-conjugated phalloidin to reveal the actin cytoskeleton and DAPI to reveal nucleus, magnification 40×.

[9] = test system: human keloid fibroblasts; test: TGF-β1 induced phosphorylation of HSP27 in human keloid fibroblasts (fluorescence microscopy); assay type: cell-based; details: 60 μM BIP for 2 h followed by TGF-β1 1.25 ng/ml for 24 h
Method: Human keloid fibroblasts were maintained in Dulbecco's modified Eagle's medium (DMEM) supplemented with fetal calf serum (10%) and streptomycin/penicillin (1%). They were grown on cover slips and then serum-starved for 48 h. […] Cells were washed, processed for microscopy and labelled with Cy2 for phospho-HSP27 (ser 78/82, green fluorescence), Alexa 586-conjugated phalloidin (red) to reveal the actin cytoskeleton and DAPI (blue) to reveal nucleus, magnification 40×. Pre-treatment of cells with BIP followed by TGFb1 reduced phosphorylation of HSP27 in keloid fibroblasts.

[10] = test system: human keloid fibroblasts; test: TGF-β1 induced phosphorylation of HSP27 in human keloid fibroblasts (immunoblot); assay type: cell-based
Description: as §1
Human keloid fibroblasts were maintained in Dulbecco's modified Eagle's medium (DMEM) supplemented with fetal calf serum (10%) and streptomycin/penicillin (1%). They were grown to 80% confluence, and then serum-starved for 48 h. […] The phosphorylation of HSP27 was assessed by immunoblot analysis using antibodies as indicated. B, The ratio of P-P27 to P27 was calculated and the percent phosphorylation was determined with respect to the phosphorylation obtained with TGF b (lane 2).
In a separate example, lower concentrations of BIP (5 μM and 10 μM) were employed. […] TGF-β1-stimulated cells were treated with BIP (5 or 10 μM) for 24 h, and HSP27 and phospho-HSP27 levels were quantified relative to β-actin expression to correct for loading differences and normalized to untreated levels.

[11] = test system: Human Aortic Endothelial Cells; test: Endothelial cell proliferation (CyQuant NF Cell Proliferation Assay); assay type: cell-based; details: 1, 10 or 50 μM BIP, 16 hours
Method: Human Aortic Endothelial Cells (Passage 2) (Cascade Biologics) were seeded into 96-well plates at a concentration of 2000 cells per well as determined using a hemocytometer and allowed to adhere for 4 hours. They were then treated with a final concentration of 1, 10 or 50 μM MK2 inhibitor peptide (BIP), 1, 10, or 50 μM scrambled peptide (SCR), or and equal volume of PBS. Cells were returned to the incubator for 16 hours and counted on a Molecular Devices M5 spectrophotometer after 1 hour treatment with CyQuant NF Cell Proliferation Assay (Invitrogen).

[12] = test system: rat aortic smooth muscle (A7R5) cells; test: Scratch migration of A7R5 cells stimulated with LPA or TGF; assay type: cell-based; details: BIP 10 μM for 2 h prior to LPA 25 μM or TGF 2.5 ng/mL; FIG. 10
Method: A7R5 cells were serum starved with DMEM medium supplemented with 1% BSA and 1% penicillin/streptomycin for 24 h. A scratch made in the dishes using the tip of a pipette, and the cells were rinsed 3 times with PBS. Cells were untreated (C) or pre-treated with BIP (10 μM) for 2 h prior the stimulation with lysophosphatidic acid (LPA, 25 μM) or TGF (2.5 ng/mL). *: p<0.05 compared to the cells stimulated with LPA or TGF.

[13] = 10 μM BIP for 2 h followed by TGFβ1 1.25 ng/ml for 24 h
[14] = 60 μM BIP for 2 h followed by TGF-β1 1.25 ng/ml for 24 h, normalized to GAPDH, FIG. 3

Chain of MAPKAPKII (P49137 whole entry): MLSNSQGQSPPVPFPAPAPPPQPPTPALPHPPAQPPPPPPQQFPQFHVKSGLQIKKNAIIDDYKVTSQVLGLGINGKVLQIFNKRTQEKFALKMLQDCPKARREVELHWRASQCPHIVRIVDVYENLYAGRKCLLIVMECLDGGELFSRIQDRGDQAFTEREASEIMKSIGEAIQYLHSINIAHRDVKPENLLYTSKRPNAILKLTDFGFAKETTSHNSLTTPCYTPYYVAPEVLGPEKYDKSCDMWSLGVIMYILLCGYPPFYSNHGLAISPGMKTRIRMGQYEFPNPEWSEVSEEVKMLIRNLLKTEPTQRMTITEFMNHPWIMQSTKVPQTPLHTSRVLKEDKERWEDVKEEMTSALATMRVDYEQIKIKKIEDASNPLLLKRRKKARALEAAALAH

Compound | sodium nitroprusside induced relaxation of saphenous vein [1] | thickening of the intimal layer in saphenous vein [2] | CTGF expression in saphenous vein [3] | phosphorylation of HSP27 in saphenous vein [3] | phosphorylation of HSP27 (relative p-HSP27/HSP27) [4] | LPA induced CTGF expression [5] | MAPKAPKII induced phosphorylation of HSP27 in vitro [6] | TGFβ1 induced expression of CTGF [7, 13] | TGFβ1 induced expression of collagen [7, 13] | TGF-β1 induced expression of CTGF [7, 14] | TGF-β1 induced expression of collagen [7, 14] | central actin [8] | stress fiber formation [8] | TGF-β1 induced phosphorylation of HSP27 (ser 78/82), fluorescence microscopy [9] | phosphorylation of HSP27 (phospho-HSP27 as ratio to endogenous HSP27) ([10]; 10 μM BIP for 2 h followed by TGFβ1 for 24 h, FIG. 2) | TGF-β1 induced phosphorylation of HSP27, immunoblot ([10]; 10 μM BIP for 24 h, TGF-β1-stimulated cells, relative to β-actin, normalized to untreated) | TGF-β1 induced phosphorylation of HSP27 (ratio P-P27 to P27), immunoblot ([10]; 60 μM BIP for 2 h followed by TGFβ-1 […] for 24 h, n=3, FIG. 4) | EC proliferation [11] | migration of cells [12]
C[S+]([O-])c1ccc(-c2nc(-c3ccncc3)c(-c3ccc(F)cc3)[nH]2)cc1 (stereo not shown) [SB, SB 203580, reference compound] | significant increases | Inhibits | Inhibits | Inhibits | Inhibits | Inhibits |  |  |  |  |  |  |  |  |  |  |  |  | 
WLRRIKAWLRRIKALNRQLGVAA [BIP] | significant increases | inhibits | inhibits | inhibits | inhibits | inhibits | inhibits | inhibits | inhibits | inhibits | inhibits | loss of central actin | reduced stress fiber formation | reduced | reduces | inhibits | effectively inhibited | Does Not Inhibit | inhibits
